Assay results published in US10793526B2, “Hydantoin derivative compounds, methods of use and methods of treatment” (University of South Florida, priority 2016, dated 2020).

What was measured:
[1] = tested on: methicillin-resistant S. aureus (MRSA, ATCC 33591); experiment: Minimum inhibitory concentration (MIC) assay, MRSA; type: cell-based, Staphylococcus aureus
Method: (§1) Minimum inhibitory concentrations (MICs) assay.^2
(§2) All compounds were tested against six different bacteria strains: methicillin-resistant S. aureus (MRSA, ATCC 33591), E. coli (ATCC 25922), methicillin-resistant S. epidermidis (MRSE, RP62A), K. pneumoniae (ATCC 13383), vancomycin-resistant Enterococcus faecalis (VREF, ATCC 700802), P. aeruginosa (ATCC 27853). One colony of each bacteria was inoculated in 4 mL TSB buffer at 37° C. overnight, which was then diluted 100 times, and the bacteria were allowed to grow to the mid-logarithmic phase. 50 μL hydantoin compounds in 2-fold serial dilution of TSB were added in the 96-well plate, then 50 μL diluted bacterial in TSB medium (1×10^6 CFU/mL) was added to each well. After 16 h of incubation at 37° C., the absorption at 600 nm wavelength on a Biotek Synergy HT microtiter plate reader was recorded. Minimum inhibitory concentrations were determined as the lowest concentrations that inhibited bacteria growth completely.

[2] = tested on: methicillin-resistant S. epidermidis (MRSE, RP62A); experiment: Minimum inhibitory concentration (MIC) assay, MRSE; type: cell-based, Staphylococcus epidermidis; conditions: Staphylococcus epidermidis, MRSE, Gram positive, 16 h incubation, read-out: MIC (μg/mL) MRSE
Method: as §1, §2

E. coli (ATCC 25922) = experiment: Minimum inhibitory concentration (MIC) assay, E. coli; type: cell-based, Escherichia coli; conditions: Escherichia coli, ATCC25922, Gram negative, 16 h incubation, read-out: MIC (μg/mL) E. coli
Method: as §1, §2

[3] = tested on: red blood cells (RBCs) of mice; experiment: Hemolytic assay; type: cell-based; conditions: hemolytic activity; mouse RBCs, 1 h at 37° C.
Method: Fresh red blood cells (RBCs) of mice were washed with 1×PBS buffer and centrifuged 10 min at 3500 rpm for 3 times until the supernatant was clear, then RBCs were diluted into 5% v/v suspension in 1×PBS. 50 μL compounds in PBS were 2-fold serially diluted in a 96-well plate, and incubated with 50 μL RBCs suspension for 1 h at 37° C. The mixture was then centrifuged for 10 min at 3500 rpm. Subsequently, 30 μL of the supernatant was added to 100 μL PBS, then the absorbance of mixture was read on a Biotek Synergy HT plate reader at 540 nm. The hemolytic activity was calculated by the formula % hemolysis=(Abssample−AbsPBS)/(AbsTriton−AbsPBS)×100%. 1% Triton X-100 were used as the positive control and 1×PBS buffer was used as the negative control.

[4] = tested on: panel of Gram-positive and Gram-negative bacteria; experiment: Antimicrobial activity against the whole panel of bacteria; type: cell-based; conditions: all tested strains; read-out: MICs against all tested Gram-positive and Gram-negative strains
Method: as §1, §2

SMILES: CCCCCCCCCCCC(=O)N[C@@H](CCCCN)CN1CC(=O)N(c2cccc(Cl)c2)C1=O [Compound 22, (S)—N-(6-amino-1-(3-(3-chlorophenyl)-2,4-dioxoimidazolidin-1-yl)hexan-2-yl)dodecanamide]
- MIC ([1]; Staphylococcus aureus, Gram positive, ATCC 33591, 16 h incubation, read-out: MIC (μg/mL) MRSA): 0.5 µg/mL
- effectiveness toward MRSA compared with nitrofurantoin ([1]; ratio of MICs): 25 fold
- MIC [2]: 0.5 µg/mL
- MIC (E. coli (ATCC 25922)): 1 µg/mL
- HC50 [3]: 95 µg/mL
- MIC [4]: < 1 µg/mL
